Laboratory results from the NIST ThermoML archive (doi:10.1021/je700260f).
Numbers after ± are expanded uncertainties.

Conditions: 283.15 K, Liquid, Vibrating tube method

FC(C(F)(F)F)C(F)(F)F [1,1,1,2,3,3,3-heptafluoropropane]
Conditions	mass density [kg/m3]
6297 kPa	1481.2 ± 1.5
6322 kPa	1481.4 ± 1.5
6344 kPa	1481.4 ± 1.5
6375 kPa	1481.6 ± 1.5
6406 kPa	1481.7 ± 1.5
6431 kPa	1481.9 ± 1.5
6461 kPa	1481.9 ± 1.5
6486 kPa	1482.3 ± 1.5
6517 kPa	1482.3 ± 1.5
6547 kPa	1482.4 ± 1.5
6577 kPa	1482.5 ± 1.5
6611 kPa	1482.7 ± 1.5
6635 kPa	1482.9 ± 1.5
6659 kPa	1483.1 ± 1.5
6686 kPa	1483.1 ± 1.5
6713 kPa	1483.1 ± 1.5
6738 kPa	1483.2 ± 1.5
6762 kPa	1483.3 ± 1.5
6790 kPa	1483.5 ± 1.5
6822 kPa	1483.7 ± 1.5
6853 kPa	1483.9 ± 1.5
6877 kPa	1484 ± 1.5
6913 kPa	1484.2 ± 1.5
6937 kPa	1484.3 ± 1.5
6998 kPa	1484.5 ± 1.5
7022 kPa	1484.7 ± 1.5
7050 kPa	1484.8 ± 1.5
7079 kPa	1485 ± 1.5
7107 kPa	1485 ± 1.5
7134 kPa	1485.2 ± 1.5
7154 kPa	1485.2 ± 1.5
7185 kPa	1485.5 ± 1.5
7209 kPa	1485.6 ± 1.5
7237 kPa	1485.7 ± 1.5
7266 kPa	1485.9 ± 1.5
7293 kPa	1485.9 ± 1.5
7325 kPa	1486.1 ± 1.5
7349 kPa	1486.2 ± 1.5
7385 kPa	1486.3 ± 1.5
7415 kPa	1486.5 ± 1.5
7443 kPa	1486.7 ± 1.5
8348 kPa	1490.8 ± 1.5
8383 kPa	1491.1 ± 1.5
8413 kPa	1491.1 ± 1.5
8453 kPa	1491.2 ± 1.5
8481 kPa	1491.5 ± 1.5
8520 kPa	1491.6 ± 1.5
8545 kPa	1491.6 ± 1.6
8576 kPa	1491.9 ± 1.6
8606 kPa	1492 ± 1.6
8641 kPa	1492.2 ± 1.6
8667 kPa	1492.3 ± 1.6
8702 kPa	1492.4 ± 1.6
8724 kPa	1492.5 ± 1.6
8755 kPa	1492.6 ± 1.6
8782 kPa	1492.8 ± 1.6
8808 kPa	1492.9 ± 1.6
8841 kPa	1492.9 ± 1.6
8868 kPa	1493.1 ± 1.6
8904 kPa	1493.4 ± 1.6
8936 kPa	1493.4 ± 1.6
8973 kPa	1493.5 ± 1.6
9000 kPa	1493.8 ± 1.6
9041 kPa	1493.9 ± 1.6
9068 kPa	1494 ± 1.6
9104 kPa	1494.2 ± 1.6
9140 kPa	1494.3 ± 1.6
9167 kPa	1494.5 ± 1.6
9194 kPa	1494.6 ± 1.6
9230 kPa	1494.7 ± 1.6
9266 kPa	1495 ± 1.6
9294 kPa	1495.1 ± 1.6
9330 kPa	1495.1 ± 1.6
9361 kPa	1495.3 ± 1.6
9403 kPa	1495.5 ± 1.6
9441 kPa	1495.7 ± 1.6
9483 kPa	1495.8 ± 1.6
9641 kPa	1496.6 ± 1.6
9679 kPa	1496.6 ± 1.6
9707 kPa	1496.9 ± 1.6
9754 kPa	1497 ± 1.6
9777 kPa	1497.2 ± 1.6
9809 kPa	1497.3 ± 1.6
9842 kPa	1497.5 ± 1.6
9875 kPa	1497.5 ± 1.6
9912 kPa	1497.8 ± 1.6
9941 kPa	1497.8 ± 1.6
9979 kPa	1498 ± 1.6
10009 kPa	1498.1 ± 1.6
10055 kPa	1498.3 ± 1.6
10080 kPa	1498.4 ± 1.6
10109 kPa	1498.5 ± 1.6
10139 kPa	1498.7 ± 1.6
10164 kPa	1498.8 ± 1.6
10198 kPa	1499 ± 1.6
10233 kPa	1499.2 ± 1.6
10254 kPa	1499.2 ± 1.6
10289 kPa	1499.3 ± 1.6
10314 kPa	1499.5 ± 1.6
10348 kPa	1499.7 ± 1.6
10370 kPa	1499.7 ± 1.6
10399 kPa	1499.7 ± 1.6
10424 kPa	1500.1 ± 1.6
